Measurements from patent publication US20070003641A1, “Synergistic pharmaceutical compositions useful in prevention and treatment of beta-amyloid protein-induced disease” (priority 2005, published 2007).

How the values were obtained:
PC12 cells = assay: MTT reduction assay: protection of PC12 cells from βA insult; type: cell-based; conditions: 24 hours
Protocol: (§1) The neuronal cell protection by the extract or combination of extracts was determined by observing the differences in the cell viability of βA (both 25-35 and 1-42) treated cells, βA (both 25-35 and 1-42) treated cells further including an extract or a combination of extracts according to the invention, and a DMSO control.
(§2) The degree of βA insult was measured by 3-[4,5-dimethylthiazol-2-yl]-2,5-diphenyltetrazolium bromide (MTT) reduction assay. See Kim et al., Neurosci Lett 303, 57 (2001), Park et al., J Nat Prod 65, 1227 (2002) and Kim et al., Plant Medica 68, 375 (2002). The detection of cell growth or cell death can be determined by observing the conversion of MTT to the colored product, MTT formazan, the concentration of which can be measured colorimetrically at 550 nm. See Kim et al., Neurosci Lett 303, 57 (2001).
(§3) The extract or combination of extracts' ability to protect PC12 cells from βA insult was investigated according to the published procedure. See Kim et al., Neurosci Lett 303, 57 (2001), Park et al., J Nat Prod 65, 1227 (2002) and Kim et al., Plant Medica 68, 375 (2002). For the bioassay, 90 μL of exponentially growing cells (2,000 cells per mL) were plated in 96-well tissue culture plates. Cells were incubated with βA(1-42) (2.0 μg/mL, prepared from a stock solution (1.0 mg/mL in dimethyl sulfoxide (DMSO))) and test compound at various concentrations (50, 10, 2, 0.4, and 0.08 μg/mL) for 24 hours. The final DMSO concentration was less than 1%. The extract or combination of extracts' ability to protect PC12 cells from βA(1-42) insult was determined by measuring the cell's potential to reduce MTT with respect to the treatment of cells with 1% DMSO only and the treatment of cells with […] βA(1-42) and 1% DMSO without the presence of test extract or a combination of extracts. After the incubation of cells in MTT solution (25 μL per well, 1 mg/mL stock solution) for 1 h at 37° C., 100 μL Lysing buffer (50% aqueous dimethylformamide (DMF) and 20% sodium dodecyl sulfate (SDS) at pH 4.7) was added and incubated overnight at 37° C. Optical density of the resulting solutions was colorimetrically determined at 550 nm using a microplate reader. Dose-response curves were prepared and the results were expressed as ED50 values in μg/mL (Table 1). Curcumin and (±)-α-tocopherol (vitamin-E) were used as reference compounds. Bioassay using βA(25-35) was similarly performed. The extract or combination of extracts' ability to protect IMR32 and HUVEC cells from βA insult was also similarly investigated.
(§4) PC12 cells were obtained from the American Type Culture Collection (Rockville, Md.). Cells were routinely cultured on a polystyrene-coated Corning tissue culture plate (Corning, New York, N.Y.). Culture media and supplements were obtained from Life Technologies (Grand Island, N.Y.). Cells were maintained in high glucose Dulbecco's modified Eagle medium, 10% horse serum, 5% fetal calf serum, and 1% penicillin/streptomycin. See Kim et al., Neurosci Lett 303, 57 (2001), Park et al., J Nat Prod 65, 1227 (2002) and Kim et al., Plant Medica 68, 375 (2002). IMR32 human neuroblastoma cells were obtained from the American Type Culture Collection (ATCC). Normal umbilical human vein endothelial (HUVEC) cells were obtained from Clonetics (San Diego, Calif.). Cells were routinely cultured on a polystyrene-coated Corning tissue culture plate (Corning, New York, N.Y.). IMR32 cells were grown in high glucose Dulbecco's Modified Eagle Medium (DMEM), 10% horse serum, 5% fetal calf serum, and 1% penicillin/streptomycin. HUVEC cells were grown in EGM-2 Bullet Kit (Clonetics, San Diego, Calif.). For the bioassay using βA(25-35), 100 μl of exponentially growing IMR32 and HUVEC cells (2,000 and 500 cells per ml, respectively) were plated in 96-well tissue culture plates. A different number of cells per ml was used for the experiment because of the cell size difference of HUVEC cells with respect to IMR32 cells and PC12 cells. […]

[1] = system: IMR32 human neuroblastoma cells; assay: MTT reduction assay: protection of IMR32 cells from βA insult; type: cell-based
Protocol: as §1, §2, §3, §4

HUVEC cells = assay: MTT reduction assay: protection of HUVEC cells from βA insult; type: cell-based, human
Protocol: as §1, §2, §3, §4

[2] = system: PC12, IMR32, and HUVEC cells; assay: Cell protection from βA peptide insult, stated in words; type: cell-based
Protocol: as §1
as §2, with “See Kim et al., Neurosci Lett 303, 57 (2001).” left out
The extract or combination of extracts' ability to protect PC12 cells from βA insult was investigated according to the published procedure. […] The extract or combination of extracts' ability to protect PC12 cells from βA(1-42) insult was determined by measuring the cell's potential to reduce MTT with respect to the treatment of cells with 1% DMSO only and the treatment of cells with 1.0 μg/mL βA(1-42) and 1% DMSO without the presence of test extract or a combination of extracts. […] Optical density of the resulting solutions was colorimetrically determined at 550 nm using a microplate reader. […]

Molecule	ED50, cell protection against βA insult (PC12 cells; βA(1-42)) [µg/mL]	ED50, cell protection against βA insult (PC12 cells; βA(25-35)) [µg/mL]	ED50, cell protection against βA insult ([1]; βA(1-42)) [µg/mL]	ED50, cell protection against βA insult ([1]; βA(25-35)) [µg/mL]	ED50, cell protection against βA insult (HUVEC cells; βA(1-42)) [µg/mL]	ED50, cell protection against βA insult (HUVEC cells; βA(25-35)) [µg/mL]	protection of cells from βA peptide insult (in words) [2]
CCCCC/C=C/C(=O)CCc1ccc(O)c(OC)c1 [6-shogaol [6S], 6-shogaol]	5.7	5.4	6.1	6.3	5.5	5.9	
CCCCCCCCCCC(=O)CCc1ccc(O)c(OC)c1 [(45), [9]-dihydroshogaol]							effectively protected cells from βA peptide insult
CCCCCCCCC=CC(=O)CCc1ccc(O)cc1 [(50), [9]-demothoxyshogaol]							effectively protected cells from βA peptide insult
CC(C)c1cc2c(c(O)c1O)[C@@]13CCCC(C)(C)[C@@H]1[C@@H](O)C2OC3=O [RS-7]	3.1	2.3	3.4	2.9	3.5	3.2	
CC(C)c1cc(C=O)c2c(c1O)OC(=O)[C@@]21CCCC(C)(C)[C@@H]1C=O [RS-8]	13.3	11.6	14.6	15.2	16.7	15.5	
CC(C)c1cc2c(c(O)c1O)[C@@]13CCCC(C)(C)[C@@H]1[C@H](OC3=O)[C@H]2O [RS-9]	35.4	33.2	35.5	38.3	34.2	31.0	
COc1cc(C=CC(=O)CC(=O)C=Cc2ccc(O)c(OC)c2)ccc1O [curcumin, 1,7-bis(4-hydroxy-3-methoxyphenyl)-1,6-heptadiene-3,5-dione, reference compound]	7.1	6.7	6.3	7.4	6.8	6.2	
(±)-α-tocopherol [reference compound]	>50	>50	>50	>50	>50	>50	
